Legend:
Assay type in all cases: in vivo
[1] = system: Italian ryegrass (Lolium multiflorum); experiment: Test A postemergence, visual injury rating; details: Lolium multiflorum, post-emergence, 240 h, 0 is no effect, 100 is complete control, read-out: Ryegrass, Italian plant response rating (0 to 100 scale)
How it was run: (§1)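 Injury scores run from 0, no effect, to 100, complete control, judged by eye against untreated plants roughly 10 days after treatment. Chemicals carried a surfactant in a non-phytotoxic solvent and went onto loam–sand soil preemergence or onto one- to two-leaf seedlings postemergence.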

corn (Zea mays) = experiment: Test A postemergence, visual injury rating; details: Zea mays, post-emergence, 240 h, 0 is no effect, 100 is complete control, read-out: Corn plant response rating (0 to 100 scale)
How it was run: as §1

[2] = system: giant foxtail (Setaria faberii); experiment: Test A postemergence, visual injury rating; details: Setaria faberi, post-emergence, 240 h, 0 is no effect, 100 is complete control, read-out: Foxtail, Giant plant response rating (0 to 100 scale)
How it was run: as §1

kochia (Kochia scoparia) [3] = experiment: Test A postemergence, visual injury rating; details: Bassia scoparia, post-emergence, 240 h, 0 is no effect, 100 is complete control, read-out: Kochia plant response rating (0 to 100 scale)
How it was run: as §1

[4] = system: pigweed (Amaranthus retroflexus); experiment: Test A postemergence, visual injury rating; details: Amaranthus retroflexus, post-emergence, 240 h, 0 is no effect, 100 is complete control, read-out: Pigweed plant response rating (0 to 100 scale)
How it was run: as §1

[5] = system: ragweed (common ragweed, Ambrosia elatior); experiment: Test A postemergence, visual injury rating; details: Ambrosia artemisiifolia, post-emergence, 240 h, 0 is no effect, 100 is complete control, read-out: Ragweed plant response rating (0 to 100 scale)
How it was run: as §1

[6] = system: wheat (Triticum aestivum); experiment: Test A postemergence, visual injury rating; details: Triticum aestivum, post-emergence, 240 h, 0 is no effect, 100 is complete control, read-out: Wheat plant response rating (0 to 100 scale)
How it was run: as §1

[7] = system: barnyardgrass (Echinochloa crus-galli); experiment: Test B flooded paddy test, plant response rating; details: Echinochloa crus-galli, 312 h; 250 g ai/ha; Flood; scale of 0 to 100 where 0 is no effect and 100 is complete control; 13 to 15 days
How it was run: (§2)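 Test compounds are applied straight into paddy water held 3 cm above the soil surface, with that flood maintained for the whole test. After 13 to 15 days in the greenhouse, each species is scored visually relative to controls.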

[8] = system: ducksalad (Heteranthera limosa); experiment: Test B flooded paddy test, plant response rating; details: Heteranthera limosa, 312 h; 250 g ai/ha; Flood; scale of 0 to 100 where 0 is no effect and 100 is complete control; 13 to 15 days
How it was run: as §2

rice (Oryza sativa) = experiment: Test B flooded paddy test, plant response rating; details: Oryza sativa, 312 h; 250 g ai/ha; Flood; scale of 0 to 100 where 0 is no effect and 100 is complete control; 13 to 15 days
How it was run: as §2

[9] = system: sedge, umbrella (small-flower umbrella sedge, Cyperus difformis); experiment: Test B flooded paddy test, plant response rating; details: Cyperus difformis, 312 h; 250 g ai/ha; Flood; scale of 0 to 100 where 0 is no effect and 100 is complete control; 13 to 15 days
How it was run: as §2

[10] = system: barnyardgrass (Echinochloa crus-galli); experiment: Test C postemergence, plant response rating; details: Echinochloa crus-galli, post-emergence
How it was run: (§3)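 Visual injury score, 0 = no effect, 100 = complete control, assigned against untreated controls after 13 to 15 d in the greenhouse. Compounds were applied in a surfactant-containing non-phytotoxic solvent mix, preemergence to seeded loam/sand or silt loam soil, or postemergence to 1- to 4-leaf plants (2 to 18 cm).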

kochia (Kochia scoparia) [11] = experiment: Test C postemergence, plant response rating; details: Bassia scoparia, post-emergence
How it was run: as §3

[12] = system: morningglory (Ipomoea coccinea); experiment: Test C postemergence, plant response rating; details: Ipomoea, post-emergence
How it was run: as §3

[13] = system: oilseed rape (Brassica napus); experiment: Test C postemergence, plant response rating; details: Brassica napus, post-emergence
How it was run: as §3

[14] = system: ragweed (common ragweed, Ambrosia elatior); experiment: Test C postemergence, plant response rating; details: Ambrosia artemisiifolia, post-emergence
How it was run: as §3

[15] = system: velvetleaf (Abutilon theophrasti); experiment: Test C postemergence, plant response rating; details: Abutilon theophrasti, post-emergence
How it was run: as §3

[16] = system: waterhemp (common waterhemp, Amaranthus rudis); experiment: Test C postemergence, plant response rating; details: for Plant response rating, Waterhemp: scale 0 to 100; for Waterhemp plant response rating: scale 0 to 100 (0 no effect, 100 complete control)
How it was run: as §3

[17] = 62 g ai/ha, scale 0 to 100 (0 no effect, 100 complete control)
[18] = 125 g ai/ha, scale 0 to 100 (0 no effect, 100 complete control)

O=C(OCCC(F)(F)F)c1c(Br)cccc1Oc1ncc(Cl)cn1 [Compound 26, 3,3,3-trifluoropropyl 2-bromo-6-[(5-chloro-2-pyrimidinyl)oxy]benzoate]
pest or weed control at 125 g/ha ([1]; 125 g ai/ha): 70%
pest or weed control at 500 g/ha ([1]; 500 g ai/ha): 80%
plant injury at 125 g/ha (corn (Zea mays); 125 g ai/ha): 60%
plant injury at 500 g/ha (corn (Zea mays); 500 g ai/ha): 100%
pest or weed control at 125 g/ha ([2]; 125 g ai/ha): 100%
pest or weed control at 500 g/ha ([2]; 500 g ai/ha): 100%
pest or weed control at 125 g/ha (kochia (Kochia scoparia) [3]; 125 g ai/ha): 100%
pest or weed control at 500 g/ha (kochia (Kochia scoparia) [3]; 500 g ai/ha): 100%
pest or weed control at 125 g/ha ([4]; 125 g ai/ha): 100%
pest or weed control at 500 g/ha ([4]; 500 g ai/ha): 100%
pest or weed control at 125 g/ha ([5]; 125 g ai/ha): 30%
pest or weed control at 500 g/ha ([5]; 500 g ai/ha): 60%
plant injury at 125 g/ha ([6]; 125 g ai/ha): 40%
plant injury at 500 g/ha ([6]; 500 g ai/ha): 90%
pest or weed control at 250 g/ha [7]: 60%
pest or weed control at 250 g/ha [8]: 100%
plant injury at 250 g/ha (rice (Oryza sativa)): 20%
pest or weed control at 250 g/ha [9]: 100%
pest or weed control at 16 g/ha ([10]; 16 g ai/ha, scale 0 to 100): 10%
pest or weed control at 31 g/ha ([10]; 31 g ai/ha, scale 0 to 100): 10%
pest or weed control at 62 g/ha [10, 17]: 20%
pest or weed control at 125 g/ha [10, 18]: 30%
pest or weed control at 16 g/ha (kochia (Kochia scoparia) [11]; 16 g ai/ha, scale 0 to 100): 90%
pest or weed control at 31 g/ha (kochia (Kochia scoparia) [11]; 31 g ai/ha, scale 0 to 100): 90%
pest or weed control at 62 g/ha (kochia (Kochia scoparia) [11]; [17]): 90%
pest or weed control at 125 g/ha (kochia (Kochia scoparia) [11]; [18]): 95%
pest or weed control at 16 g/ha ([12]; 16 g ai/ha, scale 0 to 100): 65%
pest or weed control at 31 g/ha ([12]; 31 g ai/ha, scale 0 to 100): 60%
pest or weed control at 62 g/ha [12, 17]: 65%
pest or weed control at 125 g/ha [12, 18]: 85%
plant injury at 16 g/ha ([13]; 16 g ai/ha, scale 0 to 100): 40%
plant injury at 31 g/ha ([13]; 31 g ai/ha, scale 0 to 100): 75%
plant injury at 62 g/ha [13, 17]: 75%
plant injury at 125 g/ha [13, 18]: 80%
pest or weed control at 16 g/ha ([14]; 16 g ai/ha, scale 0 to 100): 40%
pest or weed control at 31 g/ha ([14]; 31 g ai/ha, scale 0 to 100): 55%
pest or weed control at 62 g/ha [14, 17]: 55%
pest or weed control at 125 g/ha [14, 18]: 90%
pest or weed control at 16 g/ha ([15]; 16 g ai/ha, scale 0 to 100): 30%
pest or weed control at 31 g/ha ([15]; 31 g ai/ha, scale 0 to 100): 55%
pest or weed control at 62 g/ha ([15]; 62 g ai/ha, scale 0 to 100 (0 no effect, 100 complete control), read-out: Velvetleaf plant response rating): 75%
pest or weed control at 125 g/ha [15, 18]: 80%
Plant response rating, Waterhemp ([16]; 16 g ai/ha): 95
Plant response rating, Waterhemp ([16]; 31 g ai/ha): 98
Waterhemp plant response rating ([16]; 62 g ai/ha): 98
Waterhemp plant response rating ([16]; 125 g ai/ha): 100
